Holding throughout (experiment): Antibacterial activity (MIC)
What all share (assay type): cell-based

One test deals with E. coli ESS. As to conditions: Escherichia coli.
The next test relates to E. coli JT4. As to conditions: Escherichia coli.
A further test has as its system Ps. aeruginosa 10662. As to conditions: Pseudomonas aeruginosa.
The test system of test [1] is Ps aeruginosa Dalgleish 10-^2.
In another test the test system is N catarrhalis 1502.
A further test concerns Ps. aeruginosa Dalgleish. As to conditions: Pseudomonas aeruginosa.
[2] abbreviates: Pseudomonas aeruginosa, Ps. aeruginosa 10^-2.

MIC data for nine molecules are collected here from patent EP0091302A1, “Beta-lactam derivatives” (BEECHAM GROUP PLC, priority 1982, dated 1983).

For orientation: MIC means the least concentration at which growth counts as inhibited. Read a high MIC as a less susceptible organism. With `CO[C@@]1(NC(=O)C(c2cc(N)c(O)c(O)c2)S(=O)(=O)O)C(=O)N2[C@@H](C(=O)O)C(C)(C)S[C@@H]21` (stereo partly drawn) [Example 1, Disodium 6,β-[R,S-2-(5-amino-3,4-dihydroxyphenyl)-2-sulphoacetamido]-6,α-methoxy penicillanate], the MIC in the test with E. coli ESS is 5 µg/mL; with E. coli JT4 it was 25 µg/mL; in the test on Ps. aeruginosa 10662 it was 50 µg/mL; in test [1] (Ps aeruginosa Dalgleish 10-^2), 50 µg/mL; with N catarrhalis 1502 it was below 0.2 µg/mL.

As to `CO[C@@]1(NC(=O)C(c2cc(O)c(O)c([N+](=O)[O-])c2)S(=O)(=O)O)C(=O)N2[C@@H](C(=O)O)C(C)(C)S[C@@H]21` (stereo partly drawn) [Example 2, Disodium 6,β-[R,S-2-(3,4-dihydroxy-5-nitrophenyl)-2-sulphoacetamido]-6,α-methoxypenicillanate], the MIC is 0.2 µg/mL against E. coli ESS; 2.5 µg/mL in the test on E. coli JT4; 5 µg/mL in the test on Ps. aeruginosa 10662; 1 µg/mL in test [1] (Ps aeruginosa Dalgleish 10-^2); below 0.02 µg/mL against N catarrhalis 1502.

Take `CO[C@@]1(NC(=O)[C@@H](c2cc(Cl)c(OC(C)=O)c(OC(C)=O)c2)S(=O)(=O)O)C(=O)N2[C@@H](C(=O)O)C(C)(C)S[C@@H]21` [Example 4v, Disodium 6,β-[R-2-(3-chloro-4,5-diacetoxyphenyl)-2-sulphoacetamido]-6,a-methoxypenicillanate]: the MIC against E. coli ESS is 0.05 µg/mL; in the test with E. coli JT4 it was 0.25 µg/mL; against Ps. aeruginosa 10662, 0.5 µg/mL; in test [1] (setting [2]), 0.25 µg/mL; in the test with N catarrhalis 1502, below 0.01 µg/mL.

Take `CO[C@@]1(NC(=O)[C@@H](c2cc(O)c(O)c(Cl)c2)S(=O)(=O)O)C(=O)N2[C@@H](C(=O)O)C(C)(C)S[C@@H]21` [Example 4vi, Disodium 6,B-[R-2-(3-chloro-4,5-dihydroxyphenyl)-2-sulphoacetamido]-6,a-methoxypenicillanate]: the MIC in the test on E. coli ESS was 0.05 µg/mL; against E. coli JT4, 0.5 µg/mL; in the test with Ps. aeruginosa 10662, 2.5 µg/mL; in test [1] (setting [2]), 0.5 µg/mL; in the test on N catarrhalis 1502, below 0.02 µg/mL.

`CO[C@@]1(NC(=O)[C@@H](c2cc(OC(C)=O)c(OC(C)=O)cc2Cl)S(=O)(=O)O)C(=O)N2[C@@H](C(=O)O)C(C)(C)S[C@@H]21` [Example 5, Disodium 6,B-[R-2-(2-chloro-4,5-diacetoxyphenyl)-2-sulphoacetamido]-6,a-methoxypenicillanate]: the MIC with E. coli ESS is 0.2 µg/mL; in the test on E. coli JT4, 0.5 µg/mL; against Ps. aeruginosa 10662, 5 µg/mL; in test [1] (setting [2]) it was 1 µg/mL; in the test on N catarrhalis 1502, below 0.02 µg/mL.

For `CO[C@@]1(NC(=O)[C@@H](c2cc(OC(C)=O)c(OC(C)=O)cc2C)S(=O)(=O)O)C(=O)N2[C@@H](C(=O)O)C(C)(C)S[C@@H]21` [Example 6vi, Disodium 6,β-[R-2-(4,5-diacetoxy-2-methylphenyl)-2-sulphoacetamido]-6,a-methoxypenicillanate], the MIC against E. coli ESS turned out to be 4 µg/mL; in the test with E. coli JT4 it was 16 µg/mL; with Ps. aeruginosa 10662 it was 16 µg/mL; against Ps. aeruginosa Dalgleish, 4 µg/mL.

As for `CO[C@@]1(NC(=O)[C@H](c2cc(OC(C)=O)c(OC(C)=O)cc2C)S(=O)(=O)O)C(=O)N2[C@@H](C(=O)O)C(C)(C)S[C@@H]21` [Example 6vii, Disodium 6,β-[S-2-(4,5-diacetoxy-2-methylphenyl)-2-sulphoacetamido]-6,a-methoxypenicillanate], the MIC in the test on E. coli ESS stood at 32 µg/mL; against E. coli JT4, 64 µg/mL; in the test with Ps. aeruginosa 10662, 128 µg/mL; in the test with Ps. aeruginosa Dalgleish it was 128 µg/mL.

As to `CO[C@@]1(NC(=O)[C@@H](c2cc(C)c(OC(C)=O)c(OC(C)=O)c2)S(=O)(=O)O)C(=O)N2[C@@H](C(=O)O)C(C)(C)S[C@@H]21` [Example 7, Disodium 6,β-[R-2-(4,5-diacetoxy-3-methylphenyl)-2-sulphoacetamido]-6,a-methoxypenicillanate], the MIC with E. coli ESS was found to be 0.5 µg/mL; against E. coli JT4 it was 8 µg/mL; with Ps. aeruginosa 10662, 16 µg/mL; against Ps. aeruginosa Dalgleish, 8 µg/mL.

In the case of `CO[C@@]1(NC(=O)[C@@H](c2cc(OC(C)=O)c(OC(C)=O)c(Cl)c2Cl)S(=O)(=O)O)C(=O)N2[C@@H](C(=O)O)C(C)(C)S[C@@H]21` [Example 8, Disodium 6,β-[R-2-(4,5-diacetoxy-2,3-dichlorophenyl)-2-sulphoacetamido]-6,a-methoxypenicillanate], the MIC in the test on E. coli ESS was 0.25 µg/mL; against E. coli JT4, 1 µg/mL; with Ps. aeruginosa 10662, 2 µg/mL; against Ps. aeruginosa Dalgleish it was 2 µg/mL.
